Laboratory results from patent publication US10717742B2, “Spiro[3H-indole-3,2′-pyrrolidin]-2(1H)-one compounds and derivatives as MDM2-P53 inhibitors” (Boehringer Ingelheim International GmbH, priority 2015, dated 2020).

molecular target: p53-MDM2 interaction (GST-MDM2 protein aa 23-117 / biotinylated p53 wt peptide) (Homo sapiens (Human), UniProt Q00987); experiment: Mdm2-p53 Inhibition AlphaScreen; assay type: binding; conditions: GST-MDM2 (aa 23-117) / biotinylated p53 wt peptide
Procedure: Mdm2-p53 Inhibition AlphaScreen
15 μL of compound in 20% DMSO (serial pre-dilutions of compound are done in 100% DMSO) is pipetted to the wells of a white OptiPlate-96 (Perkin Elmer). A mix consisting of 20 nM GST-MDM2 protein (aa 23-117) and 20 nM biotinylated p53 wt peptide (encompassing aa 16-27 of wt human p53, amino acid sequence […]-Ttds-Lys-Biotin, molecular weight 2132.56 g/mol) is prepared in assay buffer (50 mM Tris/HCl pH 7.2; 120 mM NaCl; 0.1% bovine serum albumin (BSA); 5 mM dithiothreitol (DTT); 1 mM ethylenediaminetetraacetic acid (EDTA); 0.01% Tween 20). 30 μL of the mix is added to the compound dilutions and incubated for 15 min at rt while gently shaking the plate at 300 rounds per minute (rpm). Subsequently, 15 μL of premixed AlphaLISA Glutathione Acceptor Beads and AlphaScreen Streptavidin Donor Beads from PerkinElmer (in assay buffer at a concentration of 10 μg/mL each) are added and the samples are incubated for 30 min at rt in the dark (shaking 300 rpm). Afterwards, the signal is measured in a PerkinElmer Envision HIS Multilabel Reader using the AlphaScreen protocol from Perkin Elmer.
Each plate contains negative controls where biotinylated p53-peptide and GST-MDM2 are left out and replaced by assay buffer. Negative control values are entered as low basis value when using the software GraphPad Prism for calculations. Furthermore, a positive control (5% DMSO instead of test compound; with protein/peptide mix) is pipetted. Determination of IC50 values are carried out using GraphPad Prism 3.03 software (or updates thereof).

Sequence of p53-MDM2 interaction (GST-MDM2 protein aa 23-117 / biotinylated p53 wt peptide) (Q00987 23-117): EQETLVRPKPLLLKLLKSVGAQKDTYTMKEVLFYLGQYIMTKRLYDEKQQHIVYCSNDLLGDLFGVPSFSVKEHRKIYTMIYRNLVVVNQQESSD

| Structure (SMILES) | IC50 [nM] |
| --- | --- |
| O=C(O)c1ccc2c(c1)nc1n2CC[C@H]2[C@@H]1[C@H](c1cccc(Cl)c1F)[C@]1(C(=O)Nc3cc(Cl)ccc31)N2CC1CCCC1 [Ib-135] | 15 |
| O=C(O)c1ccc2c(c1)nc1n2CC[C@H]2[C@@H]1[C@H](c1cccc(Cl)c1F)[C@]1(C(=O)Nc3cc(Cl)ccc31)N2CC1CCCCC1 [Ib-137] | 34 |
| CCOc1cccc(CN2[C@@H]3CCn4c(nc5cc(C(=O)O)ccc54)[C@@H]3[C@@H](c3cccc(Cl)c3F)[C@@]23C(=O)Nc2cc(Cl)ccc23)c1 [Ib-141] | 48 |
| COc1cccc(CCN2[C@H]3CCn4c(nc5cc(C(=O)O)ccc54)[C@H]3[C@H](c3cccc(Cl)c3F)[C@]23C(=O)Nc2cc(Cl)ccc23)c1 [Ib-144] | 8 |
| O=C(O)c1ccc2c(c1)nc1n2CC[C@H]2[C@@H]1[C@H](c1cccc(Cl)c1F)[C@]1(C(=O)Nc3cc(Cl)ccc31)N2CCC(F)(F)F [Ib-146] | 11 |
| N#CC12CC(CN3[C@H]4CCn5c(nc6cc(C(=O)O)ccc65)[C@H]4[C@H](c4cccc(Cl)c4F)[C@]34C(=O)Nc3cc(Cl)ccc34)(C1)C2 [Ib-148] | 21 |
| CC(C)(C)CN1[C@H]2CCn3c(nc4cc(C(=O)O)ccc43)[C@H]2[C@H](c2cccc(Cl)c2F)[C@]12C(=O)Nc1cc(Cl)ccc12 [Ib-150] | 20 |
| Cc1cc2c(cc1C(=O)O)nc1n2CC[C@H]2[C@@H]1[C@H](c1cccc(Cl)c1F)[C@]1(C(=O)Nc3cc(Cl)ccc31)N2CC1CC1 [Ib-159] | 7 |
| Cc1cc2c(nc3n2CC[C@H]2[C@@H]3[C@H](c3cccc(Cl)c3F)[C@]3(C(=O)Nc4cc(Cl)ccc43)N2CC2CC2)c(C)c1C(=O)O [Ib-161] | 11 |
| O=C(O)C1(c2ccc3c(c2)nc2n3CC[C@H]3[C@@H]2[C@H](c2cccc(Cl)c2F)[C@]2(C(=O)Nc4cc(Cl)ccc42)N3CC2CC2)CC1 [Ib-165] | 28 |
| CC(C)(C(=O)O)c1ccc2c(c1)nc1n2CC[C@H]2[C@@H]1[C@H](c1cccc(Cl)c1F)[C@]1(C(=O)Nc3cc(Cl)ccc31)N2CC1CC1 [Ib-167] | 22 |
| O=C(O)Cc1ccc2c(c1)nc1n2CC[C@H]2[C@@H]1[C@H](c1cccc(Cl)c1F)[C@]1(C(=O)Nc3cc(Cl)ccc31)N2CC1CC1 [Ib-169] | 7 |
| O=C(O)c1ccc2c(c1)nc1n2CC[C@H]2[C@@H]1[C@H](c1cccc(Cl)c1F)[C@]1(C(=O)Nc3nc(Cl)ccc31)N2CC1CC1 [Ib-171] | 10 |
| CCOc1cccc(CN2[C@H]3CCn4c(nc5cc(C(=O)O)ccc54)[C@H]3[C@H](c3cccc(Cl)c3F)[C@]23C(=O)Nc2nc(Cl)ccc23)c1 [Ib-173] | 7 |
| O=C(O)c1ccc2c(c1)nc1n2C[C@@H]2[C@H]1[C@@H](c1cccc(Cl)c1F)[C@@]1(C(=O)Nc3cc(Cl)ccc31)N2CC1CC1 [Ib-177] | 53 |
| O=C(O)c1ccc2nc3n(c2c1)C[C@@H]1[C@H]3[C@@H](c2cccc(Cl)c2F)[C@@]2(C(=O)Nc3cc(Cl)ccc32)N1CC1CC1 [Ib-180] | 83 |
| COCc1cccc(CN2[C@@H]3Cn4c(nc5cc(C(=O)O)ccc54)[C@@H]3[C@@H](c3cccc(Cl)c3F)[C@@]23C(=O)Nc2cc(Cl)ccc23)c1 [Ib-185] | 14 |

Other lines, results leading:

| IC50 [nM] | Structure (SMILES) |
| --- | --- |
| 4 | CCOc1cccc(CN2[C@H]3CCn4c(nc5cc(C(=O)O)ccc54)[C@H]3[C@H](c3cccc(Cl)c3F)[C@]23C(=O)Nc2cc(Cl)ccc23)c1 [Ib-139] |
| 2 | CCOc1cccc(CN2[C@H]3CCn4c(nc5cc(C(=O)O)ccc54)[C@H]3[C@H](c3cccc(Cl)c3F)[C@]23C(=O)Nc2cc(Cl)ccc23)c1 [Ib-140] |
| 3 | COCc1cccc(CN2[C@H]3CCn4c(nc5cc(C(=O)O)ccc54)[C@H]3[C@H](c3cccc(Cl)c3F)[C@]23C(=O)Nc2cc(Cl)ccc23)c1 [Ib-142] |
| 7 | N#Cc1ccc2c(c1)NC(=O)[C@]21[C@@H](c2cccc(Cl)c2F)[C@@H]2c3nc4cc(C(=O)O)ccc4n3CC[C@@H]2N1CC1CC1 [Ib-152] |
| 3 | O=C(O)c1ccc2nc3n(c2c1)CC[C@H]1[C@@H]3[C@H](c2cccc(Cl)c2F)[C@]2(C(=O)Nc3cc(Cl)ccc32)N1CC1CC1 [Ib-154] |
| 2 | O=C(O)c1ccc2nc3n(c2c1)CC[C@H]1[C@@H]3[C@H](c2cccc(Cl)c2F)[C@]2(C(=O)Nc3cc(Cl)ccc32)N1CC1CC1 [Ib-155] |
| 5 | O=C(O)c1cccc2nc3n(c12)CC[C@H]1[C@@H]3[C@H](c2cccc(Cl)c2F)[C@]2(C(=O)Nc3cc(Cl)ccc32)N1CC1CC1 [Ib-156] |
| 2 | COc1cc2c(cc1C(=O)O)nc1n2CC[C@H]2[C@@H]1[C@H](c1cccc(Cl)c1F)[C@]1(C(=O)Nc3cc(Cl)ccc31)N2CC1CC1 [Ib-157] |
| 3 | O=C(O)c1cc2nc3n(c2cc1OC(F)(F)F)CC[C@H]1[C@@H]3[C@H](c2cccc(Cl)c2F)[C@]2(C(=O)Nc3cc(Cl)ccc32)N1CC1CC1 [Ib-158] |
| 4 | Cc1c(C(=O)O)ccc2c1nc1n2CC[C@H]2[C@@H]1[C@H](c1cccc(Cl)c1F)[C@]1(C(=O)Nc3cc(Cl)ccc31)N2CC1CC1 [Ib-160] |
| 6 | CC(C)c1cc2c(cc1C(=O)O)nc1n2CC[C@H]2[C@@H]1[C@H](c1cccc(Cl)c1F)[C@]1(C(=O)Nc3cc(Cl)ccc31)N2CC1CC1 [Ib-162] |
| 2 | O=C(O)c1cc2nc3n(c2cc1F)CC[C@H]1[C@@H]3[C@H](c2cccc(Cl)c2F)[C@]2(C(=O)Nc3cc(Cl)ccc32)N1CC1CC1 [Ib-163] |
| 3 | O=C(O)c1cc2nc3n(c2cc1C(F)(F)F)CC[C@H]1[C@@H]3[C@H](c2cccc(Cl)c2F)[C@]2(C(=O)Nc3cc(Cl)ccc32)N1CC1CC1 [Ib-164] |
| 3 | O=C(O)c1ccc2c(c1)nc1n2C[C@H]2[C@@H]1[C@H](c1cccc(Cl)c1F)[C@]1(C(=O)Nc3cc(Cl)ccc31)N2CC1CC1 [Ib-175] |
| 2 | O=C(O)c1ccc2c(c1)nc1n2C[C@H]2[C@@H]1[C@H](c1cccc(Cl)c1F)[C@]1(C(=O)Nc3cc(Cl)ccc31)N2CC1CC1 [Ib-176] |
| 4 | O=C(O)c1ccc2nc3n(c2c1)C[C@H]1[C@@H]3[C@H](c2cccc(Cl)c2F)[C@]2(C(=O)Nc3cc(Cl)ccc32)N1CC1CC1 [Ib-178] |
| 2 | O=C(O)c1ccc2nc3n(c2c1)C[C@H]1[C@@H]3[C@H](c2cccc(Cl)c2F)[C@]2(C(=O)Nc3cc(Cl)ccc32)N1CC1CC1 [Ib-179] |
| 3 | COCc1cccc(CN2[C@H]3Cn4c(nc5cc(C(=O)O)ccc54)[C@H]3[C@H](c3cccc(Cl)c3F)[C@]23C(=O)Nc2cc(Cl)ccc23)c1 [Ib-183] |
| 2 | COCc1cccc(CN2[C@H]3Cn4c(nc5cc(C(=O)O)ccc54)[C@H]3[C@H](c3cccc(Cl)c3F)[C@]23C(=O)Nc2cc(Cl)ccc23)c1 [Ib-184] |
| 4 | COc1cccc(CCN2[C@H]3Cn4c(nc5cc(C(=O)O)ccc54)[C@H]3[C@H](c3cccc(Cl)c3F)[C@]23C(=O)Nc2cc(Cl)ccc23)c1 [Ib-186] |
| 3 | Cc1cc2c(cc1C(=O)O)nc1n2C[C@H]2[C@@H]1[C@H](c1cccc(Cl)c1F)[C@]1(C(=O)Nc3cc(Cl)ccc31)N2CC1CC1 [Ib-188] |
| 3 | Cc1c(C(=O)O)ccc2c1nc1n2C[C@H]2[C@@H]1[C@H](c1cccc(Cl)c1F)[C@]1(C(=O)Nc3cc(Cl)ccc31)N2CC1CC1 [Ib-189] |
| 2 | Cc1c(C(=O)O)ccc2c1nc1n2C[C@H]2[C@@H]1[C@H](c1cccc(Cl)c1F)[C@]1(C(=O)Nc3cc(Cl)ccc31)N2CC1CC1 [Ib-190] |
| 6 | CCN1[C@H]2Cn3c(nc4cc(C(=O)O)c(C)cc43)[C@H]2[C@H](c2cccc(Cl)c2F)[C@]12C(=O)Nc1cc(Cl)ccc12 [Ib-191] |
